Data published in ChEMBL document CHEMBL3112428, “Biological evaluation of diazene derivatives as anti-tubercular compounds” (Eur J Med Chem, 2014).
Converted amounts (≈) assume the structure as drawn.

system: Mycobacterium tuberculosis variant bovis; test: Antituberculosis activity against Mycobacterium bovis AN5 expressing lux gene assessed as inhibition of bacterial replication after 6 days by luminometry analysis; type: functional, organism-based; conditions: AN5, 144 h

Structure (SMILES) | IC50 [µg/mL]
O=C(/N=N/c1ccc([N+](=O)[O-])cc1)Nc1ccccc1 | 2.21 (≈ 8.18 µM)
O=C(/N=N/c1ccc(C(F)(F)F)cc1)Nc1ccccc1 | 1.05 (≈ 3.58 µM)
CCOC(=O)/N=N/C(=O)Nc1ccc(C)cc1 | 2.78 (≈ 11.8 µM)
